These compounds were tested against human MGL from HeLa cells (Homo sapiens (Human), UniProt Q99685) (assay: MGL in vitro activity assay: cleavage of [glycerol-1,3-3H]-oleyl glycerol, activated carbon filtration). Details: 300 nM [Glycerol-1,3-3H]-oleyl glycerol, endogenously expressed MGL from HeLa cells, one hour incubation.
Sequence of human MGL from HeLa cells (Q99685 whole entry): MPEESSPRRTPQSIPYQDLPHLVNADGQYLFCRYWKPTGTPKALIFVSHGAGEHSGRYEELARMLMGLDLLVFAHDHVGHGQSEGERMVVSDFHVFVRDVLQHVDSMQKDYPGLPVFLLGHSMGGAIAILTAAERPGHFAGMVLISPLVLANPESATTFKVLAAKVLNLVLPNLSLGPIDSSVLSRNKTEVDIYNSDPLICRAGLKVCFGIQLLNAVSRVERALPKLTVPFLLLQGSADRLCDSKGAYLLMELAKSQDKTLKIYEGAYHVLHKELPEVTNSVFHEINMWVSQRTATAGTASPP
Assay type: biochemical
Procedure, shortened: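 Endogenous human MGL from HeLa cells or homogenates was incubated with compound and 300 nM [glycerol-1,3-3H]-oleyl glycerol for one hour. Released [3H]-glycerol passing an activated carbon filter was counted as the measure of activity. Screening used 10 μM compound, with IC50 top concentration set empirically.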
`C[C@H]1c2nn(C)c(-c3cnn(-c4ccccn4)c3)c2CCN1C(=O)c1ccc2ncccc2c1` [Example 70, (S)-(2,7-Dimethyl-3-(1-(pyridin-2-yl)-1H-pyrazol-4-yl)-2,4,5,7-tetrahydro-6H-pyrazolo[3,4-c]pyridin-6-yl)(quinolin-6-yl)methanone] was tested, and the IC50 was 1230 nM. For `C[C@H]1c2nn(C)c(-c3ccnn3CC3CC3)c2CCN1C(=O)c1ccc2ncccc2c1` [Example 71, (S)-(3-(1-(Cyclopropylmethyl)-1H-pyrazol-5-yl)-2,7-dimethyl-2,4,5,7-tetrahydro-6H-pyrazolo[3,4-c]pyridin-6-yl)(quinolin-6-yl)methanone], the IC50 was 7300 nM. With `CCn1nc(C(F)(F)F)cc1-c1c2c(nn1C)[C@@H]1CCC[C@H](C2)N1C(=O)c1cccc(C)c1` [Example 78, ((5R,9S)-3-(1-Ethyl-3-(trifluoromethyl)-1H-pyrazol-5-yl)-2-methyl-4,5,6,7,8,9-hexahydro-2H-5,9-epiminocycloocta[c]pyrazol-10-yl)(m-tolyl)methanone] the IC50 was 160 nM. For `COc1cccc(C(=O)N2[C@@H]3CCC[C@H]2c2nn(C)c(-c4cc(C(F)(F)F)n(C)n4)c2C3)c1C` [Example 79, (3-Methoxy-2-methylphenyl)((5R,9S)-2-methyl-3-(1-methyl-5-(trifluoromethyl)-1H-pyrazol-3-yl)-4,5,6,7,8,9-hexahydro-2H-5,9-epiminocycloocta[c]pyrazol-10-yl)methanone], the IC50 was 16 nM. Work on `Cn1nc(C(F)(F)F)cc1-c1c2c(nn1C)[C@@H]1CCC[C@H](C2)N1C(=O)c1ccc2ncccc2c1` [Example 80, ((5R,9S)-2-Methyl-3-(1-methyl-3-(trifluoromethyl)-1H-pyrazol-5-yl)-4,5,6,7,8,9-hexahydro-2H-5,9-epiminocycloocta[c]pyrazol-10-yl)(quinolin-6-yl)methanone] yielded an IC50 of 22 nM. Compound `Cn1nc(C(F)(F)F)cc1-c1c2c(nn1C)[C@@H]1CCC[C@H](C2)N1C(=O)c1n[nH]c2ncc(F)cc12` [Example 81, (5-Fluoro-1H-pyrazolo[3,4-b]pyridin-3-yl)((5R,9S)-2-methyl-3-(1-methyl-3-(trifluoromethyl)-1H-pyrazol-5-yl)-4,5,6,7,8,9-hexahydro-2H-5,9-epiminocycloocta[c]pyrazol-10-yl)methanone] has an IC50 of 100 nM. In the case of `Cc1ccc2c(C(=O)N3[C@@H]4CCC[C@H]3c3nn(C)c(-c5cc(C(F)(F)F)nn5C)c3C4)nccc2n1` [Example 82, (2-Methyl-1,6-naphthyridin-5-yl)((5R,9S)-2-methyl-3-(1-methyl-3-(trifluoromethyl)-1H-pyrazol-5-yl)-4,5,6,7,8,9-hexahydro-2H-5,9-epiminocycloocta[c]pyrazol-10-yl)methanone], the IC50 is reported as 74 nM. For `Cn1nc(C(F)(F)F)cc1-c1c2c(nn1C)[C@@H]1CCC[C@H](C2)N1C(=O)c1cnc2cccc(F)c2c1` [Example 83, (5-Fluoroquinolin-3-yl)((5R,9S)-2-methyl-3-(1-methyl-3-(trifluoromethyl)-1H-pyrazol-5-yl)-4,5,6,7,8,9-hexahydro-2H-5,9-epiminocycloocta[c]pyrazol-10-yl)methanone], the IC50 was 40 nM. For `Cn1nc(C(F)(F)F)cc1-c1c2c(nn1C)[C@@H]1CCC[C@H](C2)N1C(=O)c1noc2ccccc12` [Example 84, Benzo[d]isoxazol-3-yl((5R,9S)-2-methyl-3-(1-methyl-3-(trifluoromethyl)-1H-pyrazol-5-yl)-4,5,6,7,8,9-hexahydro-2H-5,9-epiminocycloocta[c]pyrazol-10-yl)methanone], the IC50 was 5.1 nM. Work on `Cn1nc(C(F)(F)F)cc1-c1c2c(nn1C)[C@@H]1CCC[C@H](C2)N1C(=O)c1nn(C)c2ncccc12` [Example 85, (1-Methyl-1H-pyrazolo[3,4-b]pyridin-3-yl)((5R,9S)-2-methyl-3-(1-methyl-3-(trifluoromethyl)-1H-pyrazol-5-yl)-4,5,6,7,8,9-hexahydro-2H-5,9-epiminocycloocta[c]pyrazol-10-yl)methanone] yielded an IC50 of 64 nM.

— patent US11891387B2, “Monoacylglycerol lipase modulators” (Janssen Pharmaceutica NV, priority 2020, dated 2024)
